Source: patent EP4740948A1 (Dong Wha Pharm. Co., Ltd., priority 2023, dated 2025)

What was measured:
EZH1 = EZH1 (Homo sapiens, UniProt Q92800); test: AlphaLISA enzyme activity inhibition, EZH1; assay type: biochemical; conditions: for inhibition at 0.005 µM: 5nM test substance; for inhibition at 0.01 µM: 10nM test substance
Procedure, shortened: (§1)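 EZH1 or EZH2 was mixed with compound at 5 nM or 10 nM final in 20 mM Tris pH 8.0, 0.1% BSA, 0.5 mM DTT, then histone H3 peptide and SAM were added. After 2 h reaction, AlphaLISA acceptor and donor beads detected methylation; inhibition rate was calculated against DMSO control.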

EZH2 = EZH2 (Homo sapiens, UniProt Q15910); test: AlphaLISA enzyme activity inhibition, EZH2; assay type: biochemical; conditions: for inhibition at 0.005 µM: 5nM test substance; for inhibition at 0.01 µM: 10nM test substance
Procedure, shortened: as §1

Lovo cells = test: Cancer cell proliferation inhibition (Cell Counting Kit-8), colorectal cancer cell line; assay type: cell-based; conditions: Homo sapiens, LoVo, 264 h, 1000 nM, cultured seven to 11 days; read-out: % inhibition rate LoVo
Procedure, shortened: (§2)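 Cells grown in RPMI1640, McCoy's 5a, L-15 or DMEM with 10% fetal bovine serum, seeded at 100 to 1,000 cells per well, then exposed to test compound at 1000 nM for seven to 11 days. Viability read by CCK-8; % inhibition = {1−(test/control)} × 100.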

G401 cells = test: Cancer cell proliferation inhibition (Cell Counting Kit-8), rhabdoid tumor cell line; assay type: cell-based; conditions: Homo sapiens, G-401, 264 h, 1000 nM, cultured seven to 11 days; read-out: % inhibition rate G401
Procedure, shortened: (§3)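 Cells grown in RPMI1640, McCoy's 5a, L-15 or DMEM with 10% FBS, seeded at 100 to 1,000 cells/well and treated with test substance at 1000 nM for 7 to 11 days. Viability read by CCK-8; % inhibition = {1−(test/control)} × 100.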

MKN-45 cells = test: Cancer cell proliferation inhibition (Cell Counting Kit-8), gastric cancer cell line; assay type: cell-based; conditions: Homo sapiens, MKN-45, 264 h, 1000 nM, cultured seven to 11 days; read-out: % inhibition rate MKN -45
Procedure, shortened: as §3

SW-13 cells = test: Cancer cell proliferation inhibition (Cell Counting Kit-8), adrenal cancer cell line; assay type: cell-based; conditions: Homo sapiens, SW13, 264 h, 1000 nM, cultured seven to 11 days; read-out: % inhibition rate SW-13
Procedure, shortened: as §2

MIA-PaCa-2 cells = test: Cancer cell proliferation inhibition (Cell Counting Kit-8), pancreatic cancer cell line; assay type: cell-based; conditions: Homo sapiens, MIA PaCa-2, 264 h, 1000 nM, cultured seven to 11 days; read-out: % inhibition rate MIA-Paca2
Procedure, shortened: as §2

NCI-H1299 cells = test: Cancer cell proliferation inhibition (Cell Counting Kit-8), lung cancer cell line; assay type: cell-based; conditions: Homo sapiens, NCI-H1299, 264 h, 1000 nM, cultured seven to 11 days; read-out: % inhibition rate NCI-H129 9
Procedure, shortened: as §2

Chain of EZH2 (Q15910 whole entry, species assumed): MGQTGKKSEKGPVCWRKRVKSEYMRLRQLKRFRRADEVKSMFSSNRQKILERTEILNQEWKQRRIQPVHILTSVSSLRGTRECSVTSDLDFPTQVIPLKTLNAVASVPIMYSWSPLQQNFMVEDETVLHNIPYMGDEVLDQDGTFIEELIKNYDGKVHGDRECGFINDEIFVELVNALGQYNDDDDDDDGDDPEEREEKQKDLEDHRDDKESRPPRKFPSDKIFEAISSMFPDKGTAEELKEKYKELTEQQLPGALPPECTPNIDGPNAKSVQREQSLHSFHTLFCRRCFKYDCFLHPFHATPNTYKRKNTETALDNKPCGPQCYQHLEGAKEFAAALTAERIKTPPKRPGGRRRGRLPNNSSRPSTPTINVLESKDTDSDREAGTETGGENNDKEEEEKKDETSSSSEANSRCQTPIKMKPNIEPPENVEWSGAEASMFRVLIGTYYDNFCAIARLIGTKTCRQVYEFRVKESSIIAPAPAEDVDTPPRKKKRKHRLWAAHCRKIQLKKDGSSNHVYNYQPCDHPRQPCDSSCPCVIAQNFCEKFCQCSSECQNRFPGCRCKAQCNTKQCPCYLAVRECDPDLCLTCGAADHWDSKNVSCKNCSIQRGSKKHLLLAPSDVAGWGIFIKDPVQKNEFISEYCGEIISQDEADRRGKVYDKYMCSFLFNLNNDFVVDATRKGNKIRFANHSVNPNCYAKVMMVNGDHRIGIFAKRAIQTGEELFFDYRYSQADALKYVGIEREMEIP
Chain of EZH2 (O75530 whole entry partner, species assumed): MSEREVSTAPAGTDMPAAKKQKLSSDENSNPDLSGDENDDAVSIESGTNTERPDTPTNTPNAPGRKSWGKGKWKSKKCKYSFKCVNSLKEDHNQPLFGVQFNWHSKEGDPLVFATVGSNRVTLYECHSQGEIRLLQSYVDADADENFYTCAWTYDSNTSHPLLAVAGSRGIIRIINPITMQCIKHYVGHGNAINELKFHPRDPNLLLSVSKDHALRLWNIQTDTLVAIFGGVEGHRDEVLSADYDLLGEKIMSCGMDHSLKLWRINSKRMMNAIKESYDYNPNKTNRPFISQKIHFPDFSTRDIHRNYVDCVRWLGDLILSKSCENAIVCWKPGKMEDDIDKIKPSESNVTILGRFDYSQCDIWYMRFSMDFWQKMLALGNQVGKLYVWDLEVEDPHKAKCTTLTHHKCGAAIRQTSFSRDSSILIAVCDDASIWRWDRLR
Chain of EZH2 (Q15022 whole entry partner, species assumed): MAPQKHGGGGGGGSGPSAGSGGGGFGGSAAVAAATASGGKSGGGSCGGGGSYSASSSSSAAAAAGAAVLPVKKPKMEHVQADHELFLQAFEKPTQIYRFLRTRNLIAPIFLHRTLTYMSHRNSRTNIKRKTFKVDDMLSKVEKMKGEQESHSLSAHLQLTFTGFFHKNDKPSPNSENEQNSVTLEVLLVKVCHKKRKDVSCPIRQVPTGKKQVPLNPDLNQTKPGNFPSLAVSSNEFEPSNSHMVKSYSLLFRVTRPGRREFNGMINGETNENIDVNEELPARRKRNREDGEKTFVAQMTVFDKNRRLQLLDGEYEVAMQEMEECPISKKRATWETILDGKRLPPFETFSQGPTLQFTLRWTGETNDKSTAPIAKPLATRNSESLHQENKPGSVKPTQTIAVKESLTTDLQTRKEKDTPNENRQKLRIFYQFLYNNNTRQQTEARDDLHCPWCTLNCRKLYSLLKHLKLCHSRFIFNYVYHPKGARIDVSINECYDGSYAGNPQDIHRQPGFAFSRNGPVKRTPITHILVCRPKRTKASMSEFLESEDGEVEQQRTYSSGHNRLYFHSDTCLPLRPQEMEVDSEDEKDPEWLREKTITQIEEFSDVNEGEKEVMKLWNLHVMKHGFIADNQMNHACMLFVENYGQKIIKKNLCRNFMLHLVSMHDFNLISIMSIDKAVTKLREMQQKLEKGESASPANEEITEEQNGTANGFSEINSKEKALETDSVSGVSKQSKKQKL
Chain of EZH1 (Q92800 whole entry, species assumed): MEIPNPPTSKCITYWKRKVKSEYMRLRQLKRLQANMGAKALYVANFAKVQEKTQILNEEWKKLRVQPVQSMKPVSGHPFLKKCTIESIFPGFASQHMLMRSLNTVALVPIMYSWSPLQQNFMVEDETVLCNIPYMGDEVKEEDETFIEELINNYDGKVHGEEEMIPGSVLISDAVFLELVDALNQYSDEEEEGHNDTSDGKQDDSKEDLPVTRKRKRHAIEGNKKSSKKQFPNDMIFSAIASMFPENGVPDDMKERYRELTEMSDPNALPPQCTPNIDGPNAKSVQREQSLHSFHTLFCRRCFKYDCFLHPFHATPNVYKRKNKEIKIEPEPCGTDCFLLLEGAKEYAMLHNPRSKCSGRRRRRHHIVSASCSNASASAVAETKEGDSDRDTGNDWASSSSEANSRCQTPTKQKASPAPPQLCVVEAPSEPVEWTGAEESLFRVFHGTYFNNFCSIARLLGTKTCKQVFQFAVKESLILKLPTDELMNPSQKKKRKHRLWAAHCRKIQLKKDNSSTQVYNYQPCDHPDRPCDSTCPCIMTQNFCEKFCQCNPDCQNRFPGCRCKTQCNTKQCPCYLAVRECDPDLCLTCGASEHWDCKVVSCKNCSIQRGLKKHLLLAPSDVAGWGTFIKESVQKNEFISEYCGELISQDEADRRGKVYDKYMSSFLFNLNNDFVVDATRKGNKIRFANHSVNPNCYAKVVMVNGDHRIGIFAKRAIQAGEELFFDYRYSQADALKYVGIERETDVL
Chain of EZH1 (O75530 whole entry partner, species assumed): as the sequence (O75530 whole entry partner, species assumed) above
Chain of EZH1 (Q15022 whole entry partner, species assumed): as the sequence (Q15022 whole entry partner, species assumed) above

inhibition at 0.005 µM (EZH1) [%] | inhibition at 0.01 µM (EZH1) [%] | inhibition at 0.005 µM (EZH2) [%] | inhibition at 0.01 µM (EZH2) [%] | Structure (SMILES) | inhibition at 1 µM (Lovo cells) [%] | inhibition at 1 µM (G401 cells) [%] | inhibition at 1 µM (MKN-45 cells) [%] | inhibition at 1 µM (SW-13 cells) [%] | inhibition at 1 µM (MIA-PaCa-2 cells) [%] | inhibition at 1 µM (NCI-H1299 cells) [%]
32.5 | 68.8 | 96.7 | 100 | CSc1cc(C)[nH]c(=O)c1CNC(=O)c1cc(-c2ccc(N3C[C@@H](C)O[C@@H](C)C3)nc2)c2c(c1C)OC(C)([C@H]1CC[C@H](N(C)CCCC(F)(F)F)CC1)O2 (stereo partly drawn) [Compound 113] | ≥ 70 | ≥ 70 | ≤ 30 | 30 to 70 | ≤ 30 | ≤ 30
28.6 | 38.2 | 45.8 | 91.7 | CSc1cc(C)[nH]c(=O)c1CNC(=O)c1cc(-c2ccc(N3C[C@@H](C)O[C@@H](C)C3)nc2)c2c(c1C)OC(C)([C@H]1CC[C@H](N(C)C3CCCCC3)CC1)O2 (stereo partly drawn) [Compound 114, 2-(trans-4-(cyclohexyl(methyl)amino)cyclohexyl)-7-(6-((2S,6R)-2,6-dimethylmorpholino)pyridin-3-yl)-2,4-dimethyl-N-((6-methyl-4-(methylthio)-2-oxo-1,2-dihydropyridin-3-yl)methyl)benzo[d][1,3]dioxole-5-carboxamide] | ≥ 70 | ≥ 70 | ≤ 30 | 30 to 70 | ≤ 30 | ≤ 30
6.1 | 9.6 | 37.3 | 85.8 | CSc1cc(C)[nH]c(=O)c1CNC(=O)c1cc(-c2ccc(N3C[C@@H](C)O[C@@H](C)C3)nc2)c2c(c1C)OC(C)([C@H]1CC[C@H](N(C)C(=O)C(F)(F)F)CC1)O2 (stereo partly drawn) [Compound 115, 7-(6-((2S,6R)-2,6-dimethylmorpholino)pyridin-3-yl)-2,4-dimethyl-N-((6-methyl-4-(methylthio)-2-oxo-1,2-dihydropyridin-3-yl)methyl)-2-(trans-4-(2,2,2-trifluoro-N-methylacetamido)cyclohexyl)benzo[d][1,3]dioxole-5-carboxamide] | ≥ 70 | 30 to 70 | ≤ 30 | ≤ 30 | ≤ 30 | ≤ 30
